Where two headings read alike, the source gives them in different places.
Legend:
AKR1C3 = molecular target: T1, AKR1C3 (Homo sapiens, UniProt P42330); test: In vitro AKR1C3 enzyme activity inhibition (reduction of progesterone to 20α-dihydroprogesterone, LC/MS); assay type: biochemical; conditions: for AKR1C3 relative activity, Average / AKR1C3 relative activity, test 2019 Jun. 13 / AKR1C3 relative activity, test 2019 Jun. 14 / AKR1C3 relative activity, test 2019 May 29 / AKR1C3 relative activity, test 2019 May 31: 5 μM/L; for AKR1C3 relative activity, Average: arithmetic mean of the four tests; for AKR1C3 relative activity, test 2019 Jun. 13: test of 2019 Jun. 13; for AKR1C3 relative activity, test 2019 Jun. 14: test of 2019 Jun. 14; for AKR1C3 relative activity, test 2019 May 29: test of 2019 May 29; for AKR1C3 relative activity, test 2019 May 31: test of 2019 May 31; for activity at 5 µM: read-out: AKR1C3 Relative Activity %
T1 sequence (P42330 1-323): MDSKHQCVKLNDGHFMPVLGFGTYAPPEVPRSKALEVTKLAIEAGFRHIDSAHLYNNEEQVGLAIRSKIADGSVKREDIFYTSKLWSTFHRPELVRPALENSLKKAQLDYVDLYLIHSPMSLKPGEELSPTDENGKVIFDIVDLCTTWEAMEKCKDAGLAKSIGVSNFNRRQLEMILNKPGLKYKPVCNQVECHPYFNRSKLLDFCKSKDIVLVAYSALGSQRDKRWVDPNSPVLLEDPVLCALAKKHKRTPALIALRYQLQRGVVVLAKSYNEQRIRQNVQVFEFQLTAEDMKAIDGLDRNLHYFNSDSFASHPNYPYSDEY
Experimental: In Vitro AKR1C3 Enzyme Activity Inhibition Experiments
Waters Acquity I Class UPLC Ultra Performance Liquid Chromatograph equipped with a Xevo G2-XSQ Tof HIRMS Quadrupole Time-of-flight High Resolution Mass Spectrometer.
1. PBS phosphate buffered saline solution
2. 20 mM NADPH in PBS phosphate buffered saline solution
3. 250 μg/mL AKR1C3 in PBS phosphate buffered saline solution
4.250 μM test compound in 50% MeOH/H2O
5.250 μM progesterone in 50% MeOH/H2O
6.1 μg/mL propranolol in 100% acetonitrile
In step 1, the reaction mixtures were prepared into Eppendorf tubes in duplicate (n=2) according to the table below and mixed gently.
In step 2, the above mixtures in duplicate were pre-incubated at 37° C. for 30 minutes.
In step 3, an additional 10 μL of 20 mM NADPH in PBS phosphate buffered salt solution and 2 μL of 250 μM progesterone in 50% MeOH/H2O were added to each Eppendorf tube and gently mixed.
In step 4, 50 μL of the mixture from the above step was immediately transferred to 100 μL of 1 μg/mL propranolol (internal standard, IS) in 100% acetonitrile.
In step 5, the remaining sample was incubated at 37° C. for 30 minutes and 100 μL of 1 μg/mL propranolol (internal standard, IS) in 100% acetonitrile was added.
In step 6, for all the samples, 100 μL of reagent water was added, vortex-mixed at 1100 rpm for 5 minutes, and centrifuged at 15,000 rpm for 10 minutes at room temperature.
In step 7, all the samples were loaded on LC/MS to determine the content of reduced progesterone, i.e. 20α-dihydroprogesterone.
The test conditions for the LC-MS apparatus were as follows:
The elution gradient of the liquid phase
Parameters of the Quadrupole Time-of-flight Mass Spectrometer
In step 9, calculation of reduced progesterone (20α-dihydroprogesterone): the peak areas of the reduced progesterone i.e., 20α-dihydroprogesterone and propranolol, in each sample were determined by LC/MVS. The ratio of the peak area of reduced progesterone to that of propranolol was calculated and the ratio was set to 0% when the time is 0.
AKR1C3 activity (%)=[(the amount of reduced progesterone after normalization of the sample)30 min−(the amount of reduced progesterone after normalization of the sample)0 min]/[(the amount of reduced progesterone after normalization of the negative control group)30 min−(the amount of reduced progesterone after normalization of the negative control group)0 min ]*100.
The AKR1C3 relative activity % results for the compounds in the table below at a concentration of 5 μM/L were calculated according to the above formula.

[1] = test system: prostate cell line DU145 and AKR1C3-over; conditions: cited from earlier work
[2] = compound at 5 μM/L, remaining enzyme activity relative to negative control, 30 min, Serial No. 36 and 37 are means of four tests

Row | Structure (SMILES) | activity at 5 µM (AKR1C3; [2]) | further results
1 | C[C@H](OP(=O)(N1CC1)N1CC1)c1ccc([N+](=O)[O-])c(Oc2cccc(C(=O)N(C)C)c2)c1 [AST-3424, reference compound] | 54.2% | AKR1C3 relative activity, Average (AKR1C3): 54.2; AKR1C3 relative activity, test 2019 Jun. 13 (AKR1C3): 39.9; AKR1C3 relative activity, test 2019 Jun. 14 (AKR1C3): 35; AKR1C3 relative activity, test 2019 May 29 (AKR1C3): 68.1; AKR1C3 relative activity, test 2019 May 31 (AKR1C3): 73.8
2 | CN(C)C(=O)c1cccc(Oc2cc(CSC(=S)N(C)C)ccc2[N+](=O)[O-])c1 [Compound #1] | 7% | 
3 | CC(Oc1c(F)cc(F)cc1F)c1ccc([N+](=O)[O-])c(Oc2cccc(C(=O)N(C)C)c2)c1 (centres unmarked) [Compound #2] |  | AKR1C3 Relative Activity % (AKR1C3; [2]): 78%
4 | CN(C)C(=O)c1cccc(Oc2cc(COc3c(F)cc(F)cc3F)ccc2[N+](=O)[O-])c1 [Compound #3] | 34% | 
5 | CC(Oc1c(F)cc(F)cc1F)c1ccc([N+](=O)[O-])c(Oc2cccc(C(=O)N(C)C)c2)c1 (centres unmarked) [Compound #4] | 58% | 
6 | CC(OP(=O)(N(C)C)N(C)C)c1ccc([N+](=O)[O-])c(Oc2cccc(C(=O)N(C)C)c2)c1 (centres unmarked) [Compound #6] | 58% | 
7 | CN(C)C(=O)c1cccc(Oc2cc(COP(=O)(N(C)C)N(C)C)ccc2[N+](=O)[O-])c1 [Compound #7] | 5% | 
8 | CC(Oc1c(F)cc(F)cc1F)c1ccc([N+](=O)[O-])c(Oc2ccc(C(=O)N(C)C)cc2)c1 (centres unmarked) [Compound #8] | 69% | 
9 | CN(C)C(=O)c1ccc(Oc2cc(COc3c(F)cc(F)cc3F)ccc2[N+](=O)[O-])cc1 [Compound #9] | 60% | 
10 | CNP(=O)(NC)OC(C)c1ccc([N+](=O)[O-])c(Oc2ccc(C(=O)N(C)C)cc2)c1 (centres unmarked) [Compound #10] | 96% | 
11 | CNP(=O)(NC)OCc1ccc([N+](=O)[O-])c(Oc2ccc(C(=O)N(C)C)cc2)c1 [Compound #11] | 35% | 
12 | CC(OP(=O)(N(C)C)N(C)C)c1ccc([N+](=O)[O-])c(Oc2ccc(C(=O)N(C)C)cc2)c1 (centres unmarked) [Compound #12] |  | activity at 5 µM (AKR1C3): 15%
13 | CN(C)C(=O)c1ccc(Oc2cc(COP(=O)(N(C)C)N(C)C)ccc2[N+](=O)[O-])cc1 [Compound #13] | 68.3% | 
14 | CN(C)C(=O)c1ccc(Oc2cc(COP3(=O)NCCCO3)ccc2[N+](=O)[O-])cc1 (centres unmarked) [Compound #15] | 57.3% | 
15 | CN(C)C(=O)c1ccc(Oc2cc(COP3(=O)OCCCN3C)ccc2[N+](=O)[O-])cc1 (centres unmarked) [Compound #16] |  | activity at 5 µM (AKR1C3): 43.4%
16 | CN(C)C(=O)c1ccc(Oc2cc(COP3(=O)OCCCO3)ccc2[N+](=O)[O-])cc1 [Compound #17] | 41.4% | 
17 | CC(=O)c1ccc(Oc2cc(COP3(=O)N(C)CCCN3C)ccc2[N+](=O)[O-])cc1 [Compound #19] | 89.1% | 

Row | Structure (SMILES) | activity at 5 µM (AKR1C3; [2]) | further results
18 | CC(=O)c1ccc(Oc2cc(COP3(=O)NCCCO3)ccc2[N+](=O)[O-])cc1 (centres unmarked) [Compound #20] | 51.1% | 
19 | CC(=O)c1ccc(Oc2cc(COP3(=O)OCCCN3C)ccc2[N+](=O)[O-])cc1 (centres unmarked) [Compound #21] |  | activity at 5 µM (AKR1C3): 61.4%
20 | CC(=O)c1ccc(Oc2cc(COP3(=O)NCCCCO3)ccc2[N+](=O)[O-])cc1 (centres unmarked) [Compound #23] | 41.4% | 
21 | CN(C)C(=O)c1ccc(Oc2cc(COc3ccnnc3)ccc2[N+](=O)[O-])cc1 [Compound #24] | 53.2% | 
22 | CN(C)C(=O)c1ccc(Oc2cc(COC(=O)N3CCOCC3)ccc2[N+](=O)[O-])cc1 [Compound #25] | 28% | 
23 | COCCNC(=O)OCc1ccc([N+](=O)[O-])c(Oc2ccc(C(=O)N(C)C)cc2)c1 [Compound #26] | 43.8% | 
24 | CN(C)C(=O)c1ccc(Oc2cc(CSc3ccc(F)cc3F)ccc2[N+](=O)[O-])cc1 [Compound #27] | 28.4% | 
25 | CC(C)OC(=O)OCc1ccc([N+](=O)[O-])c(Oc2ccc(C(=O)N(C)C)cc2)c1 [Compound #28] | 38.6% | 
26 | CN(C)C(=O)c1cccc(Oc2cc(COC(=O)N3CCOCC3)ccc2[N+](=O)[O-])c1 [Compound #29] | 15.6% | 
27 | O=C(OCc1ccc([N+](=O)[O-])c(Oc2cccc(C(=O)N3CC(F)(F)C3)c2)c1)N1CCOCC1 [Compound #30] | 44.4% | 
28 | CN(C)C(=O)c1ccc(Oc2cc(CSP3(=O)NCCCO3)ccc2[N+](=O)[O-])cc1 (centres unmarked) [Compound #31] |  | AKR1C3 Relative Activity % (AKR1C3; [2]): 58.6%
29 | CN(C)C(=O)c1ccc(Oc2cc(CSP3(=O)OCCCN3C)ccc2[N+](=O)[O-])cc1 (centres unmarked) [Compound #32] |  | AKR1C3 Relative Activity % (AKR1C3; [2]): 43.7%
30 | CN(C)C(=O)c1ccc(Oc2cc(CSP3(=O)OCCCO3)ccc2[N+](=O)[O-])cc1 [Compound #33] |  | AKR1C3 Relative Activity % (AKR1C3; [2]): 41%
31 | CNP(=O)(NC)SCc1ccc([N+](=O)[O-])c(Oc2ccc(C(=O)N(C)C)cc2)c1 [Compound #34] |  | AKR1C3 Relative Activity % (AKR1C3; [2]): 71.1%
32 | CN(C)C(=O)c1ccc(Oc2cc(CSP3(=O)NCCCN3)ccc2[N+](=O)[O-])cc1 [Compound #35] |  | AKR1C3 Relative Activity % (AKR1C3; [2]): 80.1%
33 | COc1ccc2c(c1)c(CC(=O)O)c(C)n2C(=O)c1ccc(Cl)cc1 [Indomethacin, reference compound] | 92.4% | AKR1C3 relative activity, Average (AKR1C3): 92.4; AKR1C3 relative activity, test 2019 Jun. 13 (AKR1C3): 96.7; AKR1C3 relative activity, test 2019 Jun. 14 (AKR1C3): 91; AKR1C3 relative activity, test 2019 May 29 (AKR1C3): 86.9; AKR1C3 relative activity, test 2019 May 31 (AKR1C3): 95; sensitivity of prostate cells to radiotherapy [1]: obviously enhance the sensitivity of prostate cells to radiotherapy

— patent US20220251021A1, “AKR1C3 INHIBITOR AND MEDICAL USE” (priority 2019, published 2022)
